From patent publication US4962277A, “Deletion analogues of magainin peptides” (priority 1988, dated 1990)
Like-named read-outs stand apart in the source and are kept apart here. No end group written: not given here.

Legend:
human red blood cells = conditions: pH 7
Escherichia coli = type: cell-based; conditions: six hours; for % Inhibit, E. coli: 1.0×10^6 CFU/ml; for Effective Growth Inhibition Conc., E. coli: concentration at which the reported % inhibition (greater than 80%) was found, 100% at next higher concentration if below 100%
Description: (§1) Antimicrobial assays were carried out in 96 -well tissue culture plates. Each well was incubated with a given microorganism suspended in LB medium (Escherichia coli, and Staphylococcus epidermis or YTB medium (Candida albicans). Upon the addition of the peptides or their deletion analogues, (dissolved in 1×PBS, pH 7.0) each well contained a final cell density of 1.0×10^6 colony forming units (CFU)/ml. The final peptide concentrations used were 100 μg/ml., 75.0 μg/ml, 50.0 μg/ml, 25 μg/ml, and 10 μg/ml Concentrations of up to 500 μg/ml, however, were employed against C. albicans.
(§2) Addition of peptides to the wells was defined as time zero. At six hours, the plates were placed in a Titertek Multiskan apparatus and the O.D.620 determined. The plates as well as the initial innoculum were incubated at 37° C.
(§3) Five wells per plate contained media alone. while five others contained medium plus cells. These controls were used to eliminate the possibility of media contamination while providing a measure of uninhibited growth of the microorganisms. The measurements of 1/(change in optical in density) for the wells containing either the peptides or their deletion analogues in the above-mentioned varying concentrations with the colony forming units of E. coli or S. epidermis are shown in FIGS. 1 and 2. FIG. 1 is a graph of the measurements of 1/(change in optical density) for wells containing Magainin I or Magainin II peptides or their deletion analogues and E. coli. FIG. 1a is a graph pertaining to Magainin I (indicated by X) and its deletion analogues. (The deletion analogue wherein amino acid 23 omitted was not tested). FIG. 1b is a graph pertaining to Magainin II (indicated by X) and its deletion analogues. In both graphs, Z is a control of medium plus cells.
(§4) The degree of peptide activity was determined by comparing the deletion analogs with uninhibited growth of the control cells over a six-hour period. […] As listed in Table 1, M1C is Magainin I, C-terminal carboxyl carboxy-terminated), whereas M2A, is Magainin II, C-terminal amide (amide-terminated). The letter and number code after each M1C or M2A peptide indicates the amino acid residue deleted from the particular deletion analogue of Magainin I carboxY-terminated) or Magainin II (amide-terminated).

Staphylococcus epidermis = experiment: Antimicrobial assay: growth inhibition in 96-well plates, O.D.620 at six hours; type: cell-based; conditions: for % Inhibit, S. epidermis: 1.0×10^6 CFU/ml; for Effective Growth Inhibition Conc., S. epidermis: concentration at which the reported % inhibition (greater than 80%) was found, 100% at next higher concentration if below 100%
Description: as §1, §2, §3
FIG. 2 is a graph of the measurements of 1/(change in optical density) for wells containing Magainin I or Magainin II peptides or their deletion analogues and S. epidermis. FIG. 2a is a graph pertaining to Magainin I (indicated by X) and its deletion analogues. (The deletion analogue wherein amino acid 23 was deleted was not tested.) FIG. 2b is a graph pertaining to Magainin II (indicated by X) and its deletion analogues. In both graphs, Z is a control of medium plus cells. The measurements of 1/(change in optical density) as measured for the Magainin I and Magainin II peptides and their deletion analogues can be correlated to a measurement of their effectivness against E. coli and S. epidermis.
as §4

E. coli = experiment: Kinetics of microbial killing; type: cell-based; conditions: peptide 25 μg/ml; E. coli 1.0×10^6 CFU/ml; 37° C.
Description: Dissolved peptide preparations of amide-terminated Magainin II, amide-terminated Magainin II with glycine (amino acid 18) deleted, and amide-terminated Magainin II with glutamic acid (amino acid 19) deleted were added to test tubes containing E. coli (1.0×10^6 CFU/ml) to a final peptide concentration of 25 μg/ml. At the time points of 15, 30, 45, and 60 minutes after the addition, indicated in FIG. 3, 10.0 µl were removed from each tube and sequentially diluted by a factor of ten four times in LB medium. The number of bacteria at each time point was determined by plating 10.0 μl of the 10^-2, 10^-3, and 10^-4 dilutions. The log of the number of bacteria from these dilutions at each time point was determined, and was plotted on the graph in FIG. 3. Two controls, one with medium alone and one with no peptides were both incubated along with the tubes containing cells and peptides. The tubes as well as the agar plates used were incubated at 37° C.

## GIGKFHSAGKFGKAFVGEIMKS [M1C-L^6]
Human red blood cells
  % Hemolysis of Human Red Blood Cells: 0%

## GIGKFHSAKKFGKAFVGEIMNS-NH2 [M2A-L^6]
Escherichia coli; peptide 100 μg/ml
  % Inhibit, E. coli: 0%
Staphylococcus epidermis; peptide 100 μg/ml
  % Inhibit, S. epidermis: 0%
Human red blood cells
  % Hemolysis of Human Red Blood Cells: 1%

## GIGKFLHSAGKFGKAFGEIMKS [M1C-V^17]
Human red blood cells
  % Hemolysis of Human Red Blood Cells: 1%

## GIGKFLHSAGKFGKAFVGEIKS [M1C-M^21]
Human red blood cells
  % Hemolysis of Human Red Blood Cells: 1%

## GIGKFLHSAGKFGKAFVGEIMK [M1C-S^23]
Human red blood cells
  % Hemolysis of Human Red Blood Cells: 0%

## GIGKFLHSAGKFGKAFVGEIMKS [Peptide M1C, Magainin I, reference compound]
Human red blood cells
  % Hemolysis of Human Red Blood Cells: 2%

## GIGKFLHSAGKFGKAFVGEMKS [M1C-I^20]
Human red blood cells
  % Hemolysis of Human Red Blood Cells: 1%

## GIGKFLHSAGKFGKAFVGIMKS [M1C-E^19]
Human red blood cells
  % Hemolysis of Human Red Blood Cells: 1%

## GIGKFLHSAKKFGKAFGEIMNS-NH2 [M2A-V^17]
Escherichia coli
  Effective Growth Inhibition Conc., E. coli: 50 µg/mL
Escherichia coli; peptide 50 μg/ml
  % Inhibit, E. coli: 87%
Staphylococcus epidermis; peptide 100 μg/ml
  % Inhibit, S. epidermis: 0%
Human red blood cells
  % Hemolysis of Human Red Blood Cells: 0%

## GIGKFLHSAKKFGKAFVEIMNS-NH2 [M2A-G^18]
Escherichia coli
  Effective Growth Inhibition Conc., E. coli: 10 µg/mL
Escherichia coli; listed as M2A-G^3
  Effective Growth Inhibition Conc., E. coli: 100 µg/mL
Escherichia coli; listed as M2A-G^13
  Effective Growth Inhibition Conc., E. coli: 25 µg/mL
Escherichia coli; peptide 10 μg/ml
  % Inhibit, E. coli: 94%
Escherichia coli; peptide 25 μg/ml
  % Inhibit, E. coli: 89%
Escherichia coli; peptide 100 μg/ml
  % Inhibit, E. coli: 0%
Escherichia coli; peptide 100 μg/ml, listed as M2A-G^3
  % Inhibit, E. coli: 93%
E. coli
  time until all E. coli cells were killed after addition of the peptide: ≤ 15 min
Staphylococcus epidermis
  Effective Growth Inhibition Conc., S. epidermis: 10 µg/mL
Staphylococcus epidermis; peptide 10 μg/ml
  % Inhibit, S. epidermis: 89%
Staphylococcus epidermis; peptide 50 μg/ml
  % Inhibit, S. epidermis: 80%
Staphylococcus epidermis; peptide 100 μg/ml
  % Inhibit, S. epidermis: 0%

## GIGKFLHSAKKFGKAFVGEIMN-NH2 [M2A-S^23]
Escherichia coli
  Effective Growth Inhibition Conc., E. coli: 25 µg/mL
Escherichia coli; listed as M2A-S^8
  Effective Growth Inhibition Conc., E. coli: 75 µg/mL
Escherichia coli; peptide 25 μg/ml
  % Inhibit, E. coli: 100%
Escherichia coli; peptide 75 μg/ml
  % Inhibit, E. coli: 90%
Staphylococcus epidermis; peptide 100 μg/ml
  % Inhibit, S. epidermis: 0%

## GIGKFLHSAKKFGKAFVGEIMNS [Peptide M2-Carboxy, Magainin II, reference compound]
Escherichia coli; peptide 50 μg/ml
  % Inhibit, E. coli: 100%

## GIGKFLHSAKKFGKAFVGEIMNS-NH2 [Peptide M2A, reference compound]
Escherichia coli
  Effective Growth Inhibition Conc., E. coli: 25 µg/mL
Escherichia coli; peptide 25 μg/ml
  % Inhibit, E. coli: 100%
E. coli
  time until all E. coli cells were killed after addition of the peptide: much slower
Staphylococcus epidermis
  Effective Growth Inhibition Conc., S. epidermis: 25 µg/mL
Staphylococcus epidermis; peptide 25 μg/ml
  % Inhibit, S. epidermis: 93%
Human red blood cells
  % Hemolysis of Human Red Blood Cells: 4%

## GIGKFLHSAKKFGKAFVGEIMS-NH2 [M2A-N^22]
Escherichia coli
  Effective Growth Inhibition Conc., E. coli: 25 µg/mL
Escherichia coli; peptide 25 μg/ml
  % Inhibit, E. coli: 100%
Staphylococcus epidermis
  Effective Growth Inhibition Conc., S. epidermis: 75 µg/mL
Staphylococcus epidermis; peptide 75 μg/ml
  % Inhibit, S. epidermis: 100%
Human red blood cells
  % Hemolysis of Human Red Blood Cells: 2%

## GIGKFLHSAKKFGKAFVGEINS-NH2 [M2A-M^21]
Escherichia coli
  Effective Growth Inhibition Conc., E. coli: 25 µg/mL
Escherichia coli; peptide 25 μg/ml
  % Inhibit, E. coli: 95%
Staphylococcus epidermis
  Effective Growth Inhibition Conc., S. epidermis: 75 µg/mL
Staphylococcus epidermis; peptide 75 μg/ml
  % Inhibit, S. epidermis: 90%
Human red blood cells
  % Hemolysis of Human Red Blood Cells: 0%

## GIGKFLHSAKKFGKAFVGEMNS-NH2 [M2A-I^20]
Escherichia coli
  Effective Growth Inhibition Conc., E. coli: 25 µg/mL
Escherichia coli; peptide 25 μg/ml
  % Inhibit, E. coli: 84%
Escherichia coli; peptide 100 μg/ml
  % Inhibit, E. coli: 0%
Staphylococcus epidermis; peptide 100 μg/ml
  % Inhibit, S. epidermis: 0%
Human red blood cells
  % Hemolysis of Human Red Blood Cells: 0%

## GIGKFLHSAKKFGKAFVGIMNS-NH2 [M2A-E^19]
Escherichia coli
  Effective Growth Inhibition Conc., E. coli: 10 µg/mL
Escherichia coli; peptide 10 μg/ml
  % Inhibit, E. coli: 92%
E. coli
  time until all E. coli cells were killed after addition of the peptide: ≤ 15 min
Staphylococcus epidermis
  Effective Growth Inhibition Conc., S. epidermis: 10 µg/mL
Staphylococcus epidermis; peptide 10 μg/ml
  % Inhibit, S. epidermis: 89%
Human red blood cells
  % Hemolysis of Human Red Blood Cells: 0%

## GIGKFLHSAKKFGKAVGEIMNS-NH2 [M2A-F^16]
Escherichia coli
  Effective Growth Inhibition Conc., E. coli: 100 µg/mL
Escherichia coli; peptide 100 μg/ml
  % Inhibit, E. coli: 92%
Escherichia coli; peptide 100 μg/ml, listed as M2A-F^5
  % Inhibit, E. coli: 0%
Escherichia coli; peptide 100 μg/ml, listed as M2A-F^12
  % Inhibit, E. coli: 0%
Staphylococcus epidermis; peptide 100 μg/ml
  % Inhibit, S. epidermis: 0%
Human red blood cells
  % Hemolysis of Human Red Blood Cells: 1%

## GIGKFLHSAKKFGKFVGEIMNS-NH2 [M2A-A^15]
Escherichia coli
  Effective Growth Inhibition Conc., E. coli: 10 µg/mL
Escherichia coli; listed as M2A-A^9
  Effective Growth Inhibition Conc., E. coli: 75 µg/mL
Escherichia coli; peptide 10 μg/ml
  % Inhibit, E. coli: 95%
Escherichia coli; peptide 75 μg/ml
  % Inhibit, E. coli: 82%
Staphylococcus epidermis
  Effective Growth Inhibition Conc., S. epidermis: 25 µg/mL
Staphylococcus epidermis; peptide 25 μg/ml
  % Inhibit, S. epidermis: 90%
Staphylococcus epidermis; peptide 100 μg/ml
  % Inhibit, S. epidermis: 0%

## GIGKFLSAGKFGKAFVGEIMKS [M1C-H^7]
Human red blood cells
  % Hemolysis of Human Red Blood Cells: 0%

## GIGKFLSAKKFGKAFVGEIMNS-NH2 [M2A-H^7]
Escherichia coli
  Effective Growth Inhibition Conc., E. coli: 100 µg/mL
Escherichia coli; peptide 100 μg/ml
  % Inhibit, E. coli: 90%
Staphylococcus epidermis; peptide 100 μg/ml
  % Inhibit, S. epidermis: 0%
Human red blood cells
  % Hemolysis of Human Red Blood Cells: 0%
